Like-named read-outs stand apart in the source and are kept apart here. Bounds are passed on as bounds.

One may read the DC50 as the concentration giving 50% degradation. Broadly, the Dmax is the largest share of the target that was removed. Lower therefore signals a partial loss of target. A word on the IC50: it is the concentration that gives 50% inhibition. Lower therefore signals greater potency in that assay.

Common to all, as to type: cell-based
One assay addresses T1, AR (Homo sapiens, UniProt P10275).
T1 construct: Degradation of AR; Cellular potency; host or cells: VCaP cells
T1 sequence (P10275 1-920): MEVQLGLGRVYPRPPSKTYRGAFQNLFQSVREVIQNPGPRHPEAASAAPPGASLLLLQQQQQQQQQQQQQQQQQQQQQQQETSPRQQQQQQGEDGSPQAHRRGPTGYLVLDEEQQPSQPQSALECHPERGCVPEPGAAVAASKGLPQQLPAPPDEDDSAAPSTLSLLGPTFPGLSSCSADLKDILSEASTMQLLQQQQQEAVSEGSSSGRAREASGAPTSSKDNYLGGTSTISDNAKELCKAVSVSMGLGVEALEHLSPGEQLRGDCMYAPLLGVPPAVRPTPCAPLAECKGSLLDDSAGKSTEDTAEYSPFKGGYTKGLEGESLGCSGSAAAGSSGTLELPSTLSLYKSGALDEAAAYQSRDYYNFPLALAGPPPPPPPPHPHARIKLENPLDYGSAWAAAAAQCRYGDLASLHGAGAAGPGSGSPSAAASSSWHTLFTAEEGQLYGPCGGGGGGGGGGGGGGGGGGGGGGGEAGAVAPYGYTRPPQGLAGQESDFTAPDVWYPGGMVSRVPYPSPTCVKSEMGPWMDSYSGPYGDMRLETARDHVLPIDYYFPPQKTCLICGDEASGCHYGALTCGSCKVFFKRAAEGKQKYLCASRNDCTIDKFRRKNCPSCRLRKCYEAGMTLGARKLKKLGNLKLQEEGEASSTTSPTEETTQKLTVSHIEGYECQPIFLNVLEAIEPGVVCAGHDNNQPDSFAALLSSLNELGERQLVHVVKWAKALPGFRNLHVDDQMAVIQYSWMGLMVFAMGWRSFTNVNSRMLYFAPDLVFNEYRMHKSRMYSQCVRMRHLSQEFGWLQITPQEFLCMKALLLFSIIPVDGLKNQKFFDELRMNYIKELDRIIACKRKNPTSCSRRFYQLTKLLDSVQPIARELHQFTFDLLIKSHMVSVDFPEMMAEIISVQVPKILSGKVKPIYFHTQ
The experiment in a line: Degradation of AR in VCaP cells. Particulars: for Dmax: VCaP. The protocol: (§1) Biological Assays. LNCaP and VCaP cells used were purchased from American Type Culture Collection (ATCC). LNCaP were grown in RPMI 1640 (Invitrogen) and VCaP cells were grown in DMEM with Glutamax (Invitrogen). All of the cells were supplemented with 10% fetal bovine serum (Invitrogen) at 37° C. in a humidified 5% CO2 incubator.

For another assay, the system named is VCaP cells. The assay is described as follows: Cellular potency (IC50) in VCaP cells. As for the experimental part: as §1
A further assay has as its system LNCaP cells. The assay is described as follows: Cellular potency (IC50) in LNCaP cells. As for the experimental part:
as §1

For the compound `C[C@H]1CC2(CCN(c3ccc(S(=O)(=O)N4CCN(C5CCN(c6ccc7c(c6)C(=O)N(C6CCC(=O)NC6=O)C7=O)CC5)CC4)cc3)CC2)CN1c1ccc(C#N)c(Cl)c1` (some centres unmarked) [compound 1], on AR (VCaP cells), the 50% degradation concentration (DC50) is less than 1 nM and the Dmax was more than 90%.
On AR (VCaP cells), `C[C@H]1CC2(CCN(c3ccc(S(=O)(=O)N4CCN(C5CN(c6ccc7c(c6)C(=O)N(C6CCC(=O)NC6=O)C7=O)C5)CC4)cc3)CC2)CN1c1ccc(C#N)c(Cl)c1` (some centres unmarked) [compound 2] had a DC50 of less than 1 nM. On AR (VCaP cells), this compound showed a Dmax of more than 90%. For the same compound, the IC50 is less than 10 nM in the assay with VCaP cells (Homo sapiens, VCaP) and less than 10 nM with LNCaP cells (Homo sapiens, LNCaP).
At AR (VCaP cells), `C[C@H]1CC2(CCN(c3ccc(S(=O)(=O)N4CCC(CN5Cc6cc7c(cc6C5)C(=O)N(C5CCC(=O)NC5=O)C7=O)CC4)cc3)CC2)CN1c1ccc(C#N)c(Cl)c1` (some centres unmarked) [compound 3] had a DC50 of less than 1 nM and a maximal degradation (Dmax) of more than 90%. The compound further gave an IC50 in the assay with VCaP cells (Homo sapiens, VCaP) of less than 10 nM. The IC50 with LNCaP cells (Homo sapiens, LNCaP) is less than 10 nM.
On AR (VCaP cells), `C[C@H]1CC2(CCN(c3ccc(S(=O)(=O)N4CCC(N5Cc6cc7c(cc6C5)C(=O)N(C5CCC(=O)NC5=O)C7=O)CC4)cc3)CC2)CN1c1ccc(C#N)c(Cl)c1` (some centres unmarked) [compound 4] showed a DC50 of less than 1 nM and a Dmax of 70 to 90%. In the assay with VCaP cells (Homo sapiens, VCaP), this compound registered an IC50 of less than 10 nM. For the same compound, the IC50 with LNCaP cells (Homo sapiens, LNCaP) was less than 10 nM.
At AR (VCaP cells), `C[C@H]1CC2(CCN(c3ccc(CN4CCN(C5CN(c6ccc7c(c6)C(=O)N(C6CCC(=O)NC6=O)C7=O)C5)CC4)cc3)CC2)CN1c1ccc(C#N)c(Cl)c1` (some centres unmarked) [compound 5] came in with a DC50 of less than 1 nM. Moreover, the Dmax at AR (VCaP cells) is more than 90%. Besides, the IC50 was less than 10 nM in the assay on VCaP cells (Homo sapiens, VCaP) and less than 10 nM with LNCaP cells (Homo sapiens, LNCaP).
On to `C[C@H]1CC2(CCN(c3ccc(CN4CCN(C5CN(c6ccc7c(c6)C(=O)N(C6CCC(=O)NC6=O)C7=O)C5)CC4)cc3)CC2)CN1c1ccc(C#N)c(Cl)c1` (some centres unmarked) [compound 6], for which the DC50 on AR (VCaP cells) was less than 1 nM. In addition, the IC50 with VCaP cells and in the assay with LNCaP cells was less than 10 nM throughout.
On AR (VCaP cells), `C[C@H]1CC2(CCN(c3ccc(CN4CCN(C5CN(c6ccc7c(c6)C(=O)N(C6CCC(=O)NC6=O)C7=O)C5)CC4)c(F)c3)CC2)CN1c1ccc(C#N)c(Cl)c1` (some centres unmarked) [compound 8] returned a DC50 of less than 10 nM and a Dmax of 70 to 90%. The IC50 in the assay with VCaP cells (Homo sapiens, VCaP) was less than 100 nM. The compound also came in with an IC50 with LNCaP cells (Homo sapiens, LNCaP) of less than 100 nM.
With `C[C@H]1CC2(CCN(c3ccc(CN4CCC(C5CN(c6ccc7c(c6)C(=O)N(C6CCC(=O)NC6=O)C7=O)C5)CC4)c(F)c3)CC2)CN1c1ccc(C#N)c(Cl)c1` (some centres unmarked) [compound 9], on AR (VCaP cells), the DC50 is less than 1 nM. Moreover, the Dmax on AR (VCaP cells) is more than 90%. Besides, the IC50 with VCaP cells and with LNCaP cells was less than 10 nM each time.
`COC1(CN2Cc3cc4c(cc3C2)C(=O)N(C2CCC(=O)NC2=O)C4=O)CCN(C(=O)c2ccc(N3CCC4(CC3)C[C@H](C)N(c3ccc(C#N)c(F)c3)C4)cc2)CC1` (some centres unmarked) [compound 13] displayed a maximal degradation (Dmax) on AR of more than 90%. On AR (VCaP cells), this compound came in with a DC50 of less than 100 nM.
On AR (VCaP cells), `C[C@H]1CC2(CCN(c3ccc(C4CCN(C(=O)CN5Cc6cc7c(cc6C5)C(=O)N(C5CCC(=O)NC5=O)C7=O)CC4)cc3)CC2)CN1c1ccc(C#N)c(Cl)c1` (some centres unmarked) [compound 15] gave a DC50 of less than 100 nM and a Dmax of more than 90%.
At AR (VCaP cells), `C[C@H]1CC2(CCN(c3ccc(N4CCN(CC5(F)CN(c6ccc7c(c6)C(=O)N(C6CCC(=O)NC6=O)C7=O)C5)CC4)cc3)CC2)CN1c1ccc(C#N)c(Cl)c1` (some centres unmarked) [compound 84] gave a DC50 of less than 1 nM and a Dmax of more than 90%.
On AR (VCaP cells), `COC1(CN2CCN(c3ccc(N4CCC5(CC4)C[C@H](C)N(c4ccc(C#N)c(Cl)c4)C5)cc3)CC2)CN(c2ccc3c(c2)C(=O)N(C2CCC(=O)NC2=O)C3=O)C1` (some centres unmarked) [compound 85] had a DC50 of less than 1 nM and a maximal degradation (Dmax) of more than 90%.
The matching figures for `C[C@H]1CC2(CCN(c3ccc(N4CCN(CC5(F)CN(c6ccc7c(c6)C(=O)N(C6CCC(=O)NC6=O)C7=O)C5)CC4)nc3)CC2)CN1c1ccc(C#N)c(Cl)c1` (some centres unmarked) [compound 86]: less than 1 nM and more than 90%.
`COC1(CN2CCN(c3ccc(N4CCC5(CC4)C[C@H](C)N(c4ccc(C#N)c(Cl)c4)C5)cn3)CC2)CN(c2ccc3c(c2)C(=O)N(C2CCC(=O)NC2=O)C3=O)C1` (some centres unmarked) [compound 87]: on AR (VCaP cells), the DC50 was less than 1 nM and the Dmax was more than 90%.
Take `C[C@H]1CC2(CCN(c3ccc(N4CCN(CC5(F)CN(c6ccc7c(c6)C(=O)N(C6CCC(=O)NC6=O)C7=O)C5)CC4)cn3)CC2)CN1c1ccc(C#N)c(Cl)c1` (some centres unmarked) [compound 88]: on AR (VCaP cells), the half-maximal degradation concentration (DC50) is less than 1 nM and the Dmax was more than 90%.
With `COC1(CN2CCN(c3ccc(N4CCC5(CC4)C[C@H](C)N(c4ccc(C#N)c(Cl)c4)C5)nc3)CC2)CN(c2ccc3c(c2)C(=O)N(C2CCC(=O)NC2=O)C3=O)C1` (some centres unmarked) [compound 89], on AR (VCaP cells), the DC50 is less than 1 nM and the greatest degradation seen (Dmax) was more than 90%.
As for `C[C@H]1CC2(CCN(c3ccc(C(=O)C4CCN(CC(=O)N5Cc6cc7c(cc6C5)C(=O)N(C5CCC(=O)NC5=O)C7=O)CC4)cc3)CC2)CN1c1ccc(C#N)c(Cl)c1` (stereo partly drawn) [compound 147, 2-chloro-4-((3S)-8-(4-(1-(2-(6-(2,6-dioxopiperidin-3-yl)-5,7-dioxo-3,5,6,7-tetrahydropyrrolo[3,4-f]isoindol-2(1H)-yl)-2-oxoethyl)piperidine-4-carbonyl)phenyl)-3-methyl-2,8-diazaspiro[4.5]decan-2-yl)benzonitrile], the IC50 is less than 100 nM with VCaP cells (Homo sapiens, VCaP) and less than 10 nM with LNCaP cells (Homo sapiens, LNCaP).
Regarding `C[C@H]1CC2(CCN(c3ccc(C(=O)C4CCN(C(=O)CN5Cc6cc7c(cc6C5)C(=O)N(C5CCC(=O)NC5=O)C7=O)CC4)cc3)CC2)CN1c1ccc(C#N)c(Cl)c1` (stereo partly drawn) [compound 148, 2-chloro-4-((3S)-8-(4-(1-(2-(6-(2,6-dioxopiperidin-3-yl)-5,7-dioxo-3,5,6,7-tetrahydropyrrolo[3,4-f]isoindol-2(1H)-yl)acetyl)piperidine-4-carbonyl)phenyl)-3-methyl-2,8-diazaspiro[4.5]decan-2-yl)benzonitrile], the IC50 in the assay on VCaP cells (Homo sapiens, VCaP) is less than 100 nM; in the assay with LNCaP cells (Homo sapiens, LNCaP) it was less than 10 nM.
As for `C[C@H]1CC2(CCN(c3ccc(CN4CCN(C5CN(c6cc7c(cc6F)C(=O)N(C6CCC(=O)NC6=O)C7=O)C5)CC4)cn3)CC2)CN1c1ccc(C#N)c(Cl)c1` (stereo partly drawn) [compound 153, 2-chloro-4-((3S)-8-(5-((4-(1-(2-(2,6-dioxopiperidin-3-yl)-6-fluoro-1,3-dioxoisoindolin-5-yl)azetidin-3-yl)piperazin-1-yl)methyl)pyridin-2-yl)-3-methyl-2,8-diazaspiro[4.5]decan-2-yl)benzonitrile], the IC50 in the assay with VCaP cells (Homo sapiens, VCaP) is less than 100 nM; in the assay with LNCaP cells (Homo sapiens, LNCaP), less than 10 nM.
The matching figures for `C[C@H]1CC2(CCN(c3ccc(CN4CCN(C5CN(c6ccc7c(c6)C(=O)N(C6CCC(=O)NC6=O)C7=O)C5)CC4)cn3)CC2)CN1c1ccc(C#N)c(Cl)c1` (some centres unmarked) [compound 167]: less than 10 nM and less than 10 nM.
For the compound `C[C@H]1CC2(CCN(c3ccc(CN4CCN(C5CN(c6ccc7c(c6)C(=O)N(C6CCC(=O)NC6=O)C7=O)C5)CC4)nc3)CC2)CN1c1ccc(C#N)c(Cl)c1` (stereo partly drawn) [compound 169, 2-chloro-4-((3S)-8-(6-((4-(1-(2-(2,6-dioxopiperidin-3-yl)-1,3-dioxoisoindolin-5-yl)azetidin-3-yl)piperazin-1-yl)methyl)pyridin-3-yl)-3-methyl-2,8-diazaspiro[4.5]decan-2-yl)benzonitrile], the IC50 in the assay on VCaP cells (Homo sapiens, VCaP) was less than 10 nM; in the assay with LNCaP cells (Homo sapiens, LNCaP) it was less than 10 nM.
In the case of `C[C@H]1CC2(CCN(c3cnc(CN4CCN(C5CN(c6ccc7c(c6)C(=O)N(C6CCC(=O)NC6=O)C7=O)C5)CC4)nc3)CC2)CN1c1ccc(C#N)c(Cl)c1` (stereo partly drawn) [compound 170, 2-chloro-4-((3S)-8-(2-((4-(1-(2-(2,6-dioxopiperidin-3-yl)-1,3-dioxoisoindolin-5-yl)azetidin-3-yl)piperazin-1-yl)methyl)pyrimidin-5-yl)-3-methyl-2,8-diazaspiro[4.5]decan-2-yl)benzonitrile], the IC50 is less than 100 nM in the assay on VCaP cells (Homo sapiens, VCaP) and less than 10 nM with LNCaP cells (Homo sapiens, LNCaP).
Regarding `C[C@H]1CC2(CCN(c3ccc(CN4CCC(C5CCN(c6ccc7c(c6)C(=O)N(C6CCC(=O)NC6=O)C7=O)CC5)CC4)cn3)CC2)CN1c1ccc(C#N)c(Cl)c1` (stereo partly drawn) [compound 180, 2-chloro-4-((3S)-8-(5-((1′-(2-(2,6-dioxopiperidin-3-yl)-1,3-dioxoisoindolin-5-yl)-[4,4′-bipiperidin]-1-yl)methyl)pyridin-2-yl)-3-methyl-2,8-diazaspiro[4.5]decan-2-yl)benzonitrile], the IC50 is less than 100 nM with VCaP cells (Homo sapiens, VCaP) and less than 10 nM with LNCaP cells (Homo sapiens, LNCaP).
